Laboratory results published in US20220152022A1.
Values joined by “and” are separate entries in the source; they are usually repeats but may differ in a detail not shown here. Identical values can stand only once. Counter-ions that a name gives are not always drawn.

Legend:
Type in all cases: in vivo, human
[1] = test system: Overweight and Obese Adults; test: Dose-ranging phase 1 clinical study (NCT02475317), multiple oral doses for 7 days; conditions: for treatment-emergent adverse events: all doses, 7 days; for Mean serum 7αC4: change from baseline to day 7, greatest change at maralixibat 50 mg BID; for Mean sBA levels: versus baseline, day 7
[2] = test system: Participants with Primary Sclerosing Cholangitis (PSC); test: CAMEO 14-week single-arm open-label phase 2a proof-of-concept study
Description: Participants were adults aged 18-80 years with a diagnosis of PSC. PSC diagnosis included a documented history of alkaline phosphatase (ALP) levels greater than 1.5 times above the upper limit of normal, biliary obstruction, and histological findings consistent with PSC diagnosis (if previously biopsied). The study enrolled 27 adults.
Efficacy was assessed by measuring at baseline and throughout the study sBA concentration, serum 7αC4 concentration (a marker of de novo bile acid synthesis), serum aoutotaxin concentration, LDL-C concentration, serum total cholesterol concentration, serum liver enzyme concentrations, and pruritus severity. Pruritus severity was determined by calculating Adult Itch Reported Outcome (ITCHRO) weekly sum scores and average daily scores (mean score over a 7-day period). Participants self-reported the ITCHRO daily on a scale 0-10 (0=no pruritus; 10=most severe pruritus).
Outcomes were assessed in the overall study population and in subgroups of participants (A) with any pruritus at baseline or (B) with an ITCHRO average daily score ≥4 out of 10 at baseline. Efficacy endpoints were based on change from baseline to week 14 or early termination (ET) and were analyzed using paired t-tests or Wilcoxon signed rank tests.

[3] = test system: Children with Progressive Familial Intrahepatic Cholestasis; test: INDIGO phase 2 open-label efficacy and safety study of maralixibat
Source text: The HRQoL used was the […] QUALITY OF LIFE INVENTORY (PedsQL).

[4] = test system: Children with Alagille Syndrome; test: ICONIC phase 2b randomized placebo-controlled drug-withdrawal study with long-term extension
Description: Children aged 1-18 years with a diagnosis of ALGS and evidence of cholestasis were eligible to enroll in the ICONIC clinical study, see Tables 12-14. During a long-term extension, participants with sBA levels above the upper limit of normal and/or an ITCHRO(OBS) score >1.5 were eligible for the 400 μg/kg BID dose (all participants received the 400 μg/kg BID dose). Inclusion criteria for the ICONIC study included having cholestasis, which was defined as at least one of 1) sBA concentration (total sBA) >3× the upper limit of normal, 2) serum conjugated bilirubin concentration >1 mg/dL, 3) fat-soluble vitamin deficiency not otherwise explained, 4) serum gamma-glutamyl transferase concentration >3× the upper limit of normal, and 3) intractable pruritus explainable only by liver disease. Inclusion criteria also included having significant pruritus, which was defined as an average daily score of >2 on the ITCHRO(OBS) scale for 2 consecutive weeks (0=no pruritus; 4=most severe pruritus). Exclusion criteria included having surgically disrupted enterohepatic circulation, a liver transplant, decompensated cirrhosis, or having any liver disease other than ALGS.
sBA responders were defined as those patients achieving ≥50% reduction from baseline in sBA at week 12 or 18. ITCHRO responders were defined as those patients achieving at least a 1-point reduction from Baseline in weekly morning ITCHRO(OBS) score at week 12 or 18.
In the open label extension, the effect of higher doses was explored by increasing dosage to a maximum of 400 μg/kg BID in eligible participants.
Efficacy assessments were based on changes from baseline in sBA concentration, weekly average ITCHRO(OBS) scores (0, none; 4, most severe), CSS score (0, none; 4 most severe), and Clinician Xanthoma Scale score (0, none; 4, disabling). […] During the long-term extension, efficacy assessments were conducted every 12 weeks. Serum total cholesterol and serum 7αC4 concentration were also monitored during the ICONIC clinical study, among other measures.
sBA were measured using a fully validated liquid chromatography-electrospray ionization-mass electrospray (LC-ESI-MS) method using stable-isotope dilution analysis to measure serum concentrations of principal bile acids (cholic, chenodeoxycholic, ursodeoxycholic, deoxycholic acid, lithocholic, and their corresponding glycine and taurine conjugates). Serum samples were analyzed in the Division of Pathology and Laboratory Medicine, Cincinnati Children's Hospital Medical Center according to SOP #PATH.CMS.1033. Calibration standards of individual bile acids were in the range of 50-25,000 ng/mL and Quality Control samples were prepared at concentrations of 100, 500, 1000, 2500, and 20000 ng/mL. The intra- and inter-assay imprecision of the method for individual bile acids measured was within the accepted GLP quality assurance guidelines of <15% coefficient of variance for these QC samples. The lower limit of quantification of the assay was set at 100 ng/mL and the imprecision at this concentration was <20%. The limit of detection of the assay was 5 ng/mL. Total sBA is represented by the sum of the individual bile acid species measured.

Which results are given for `CCCC[C@]1(CC)CS(=O)(=O)c2ccc(N(C)C)cc2[C@@H](c2cccc(NC(=O)N[C@@H]3O[C@H](COS(=O)(=O)O)[C@@H](O)[C@H](OCc4ccccc4)[C@H]3O)c2)[C@H]1O` (stereo in doubt) [volixibat, (2R,3R,4S,5R,6R)-4-benzyloxy-6-{3-[3-((3 S,4R,5R)-3-butyl-7-dimethylamino-3-ethyl-4-hydroxy-1,1-dioxo-2,3,4,5-tetrahydro-1H-benzo[b]thiepin-5-yl)-phenyl]-ureido}-3,5-dihydroxy-tetrahydro-pyran-2-ylmethyl) hydrogen sulfate]?
treatment-emergent adverse events [1]: All treatment-emergent adverse events were mild, and none were serious; Mean serum 7αC4 [1]: increased; Mean sBA levels [1]: not elevated

With `CCCCC1(CCCC)CS(=O)(=O)c2ccc(N(C)C)cc2[C@@H](c2ccc(OCc3ccc(C[N+]45CCN(CC4)CC5)cc3)cc2)[C@H]1O.[Cl-]` [maralixibat] as the compound, how does the treatment-emergent adverse events [1] read?
Its treatment-emergent adverse events is “All treatment-emergent adverse events were mild, and none were serious”.

What about the “Mean serum 7αC4” value [1] of the same compound?
The value was “increased”.

What about the “Mean sBA levels” value [1] of the same compound?
The value was “not elevated”.

And the tolerability ([2]; adults with PSC, up to 10 mg/day, 14 weeks)?
Its tolerability is “well tolerated”.

And the “Changes in serum total bilirubin, alanine aminotransferase, aspartate aminotransferase, and alkaline phosphatase concentrations” value ([2]; all participants)?
Its value is “not statistically significant”.

And the “participants with worsening of pruritus by >1 point” value ([2]; baseline to week 14)?
The value was “No participants”.

What about the “participants with ITCHRO average daily score improved by >1 point” value ([2]; count of all participants) of the same compound?
The value was 8 out of 27.

What about the “participants with ITCHRO average daily score improved by >3 points” value ([2]; count of all participants) of the same compound?
Its value is 6 of 27.

And the “Mean conjugated bilirubin levels, increase” value ([2]; overall population)?
Its value is 0.19 mg/dL.

And the conjugated bilirubin levels ([2]; participants with ITCHRO daily score ≥0 at baseline (so in the source))?
Its conjugated bilirubin levels is “no significant change”.

And the autotaxin levels ([2]; participants with ITCHRO daily score ≥4 at baseline)?
The autotaxin levels was “significant reductions”.

And the multi-parameter response ([3]; all PFIC 1 patients and all patients harboring a truncating ABCB11 mutation)?
The multi-parameter response was “not multi-parameter responders”.

What about the “serum ALT, AST, and bilirubin concentrations over time” value ([3]; all low-dose responders, e.g. within 2-6 months of first administration) of the same compound?
The value was “normalized or only mildly elevated”.

And the “height Z-score” value ([3]; high dose responder, following treatment response on sBA)?
The value was “increase in height Z-score”.

What about the Response ([3]; individual PFIC 2 participants, one line each, max dose 280 or 560 μg/kg/day (Table 6), No reponse [sic] / Rapid complete response / Good response / No response until 560 reached) of the same compound?
The Response was “Rapid (4×) and No (19×) and Good”.

And the “cholestasis markers after dose increase” value ([3]; low-dose responder losing response in long-term extension, raised to 280 μg/kg BID at between 640 and 730 days)?
The value was “sBA concentration decreased, severity of pruritus decreased, serum 7αC4 concentration increased, and 7αC4:sBA ratio increased”.

And the “growth (height Z-score change relative to baseline)” value ([3]; low-dose responders (FIG. 4))?
Its value is “improved growth relative to baseline”.

What about the “7αC4 concentrations at 48 weeks” value ([3]; low-dose responders (range, 3-43)) of the same compound?
Its value is 14 × baseline.

And the multi-parameter responders ([3]; mild PFIC 2 patients, 280 μg/kg QD)?
The multi-parameter responders was 1 of 7.

What about the “responders only after higher dose (high-dose responder)” value ([3]; moderate PFIC 2 patients, 280 μg/kg twice daily) of the same compound?
Its value is 1 of 12.

And the “responders by week 48” value ([3]; moderate PFIC 2 patients, 280 μg/kg/day)?
The value was 5 of 12.

And the “growth (height Z-score change relative to baseline)” value ([3]; non-responders (FIG. 4))?
The value was “did not”.

And the “7αC4 concentrations at 48 weeks” value ([3]; non-responders (range, 0.5-6))?
Its value is 1.8 × baseline.

What about the “duration of maintained response” value ([3]; responders, long-term extension) of the same compound?
Its value is “for over a year and for up to or beyond 5 years”.

What about the “weight Z-scores” value ([4]; 400 μg/kg QD then 400 μg/kg BID (FIGS. 35-36)) of the same compound?
The value was “dose-dependent increase in weight Z-scores”.

What about the “Change in ItchRO from Baseline to Week 48” value ([4]; ITCHRO(OBS) weekly morning average score, individual subjects (Table 18)) of the same compound?
Its value is −0.12 and 0.49 and −0.45 and 0.00 and −1.86 (2×) and −1.71 (2×) and −1.00 (2×) and −1.29 and −1.67 and −1.14 and −1.03 and −2.50 and −2.71 and −3.50 and −0.17 and −1.43 and −0.83.

And the “study days reported as minimal or no pruritus (ITCHRO(OBS)<1)” value ([4]; across participants, after 98 weeks)?
Its value is “over 89%”.

What about the “Clinician xanthoma scale scores” value ([4]; all participants, by week 48 (p<0.01)) of the same compound?
The value was “improved significantly”.

What about the quality of life ([4]; core study and extension) of the same compound?
Its quality of life is “improved quality of life”.

And the “PedsQL Multidimensional Fatigue Scale scores” value ([4]; core study and extension (p<0.01))?
Its value is “Improvements were seen”.

And the tolerability ([4]; core study and extension, doses up to 800 μg/kg/day, up to 4 years)?
The tolerability was “generally well tolerated”.

And the “ItchRO(Obs) Weekly Morning Average Score, Change from Baseline to Week 48” value ([4]; individual subjects, one line each (Table 19))?
Its value is −1.86 (2×) and −1.71 (2×) and −1.00 (2×) and −1.29 and −1.67 and −1.14 and −1.03 and −1.43.

And the “growth after dose increase” value ([4]; patients (N=15) given 400 μg/kg BID after 400 μg/kg QD for more than about 40 weeks)?
The value was “further increase in growth from baseline”.

What about the “sBA responders at Week 48 (N = 28), %” value ([4]; sBA Response Definition Normalization (<8.5 μmol/L)) of the same compound?
Its value is “(3.6%)”.

And the “sBA responders at Week 48 (N = 28), %” value ([4]; sBA Response Definition ≥80% Reduction)?
Its value is “(14.3%)”.

And the “sBA responders at Week 48 (N = 28), %” value ([4]; sBA Response Definition ≥90% Reduction)?
The value was “(3.6%)”.
